Converted amounts (≈) assume the structure as drawn. Where two headings read alike, the source gives them in different places.
Columns and labels:
[1] = test system: Coniophora cerebella; experiment: Agar MIC determination, Coniophora cerebella; assay type: cell-based; conditions: 336 h, beerwort/peptone agar, 28° C., 2 weeks
Protocol: (§1) Active compounds according to the invention are added, in concentrations of 0.1 mg/liter to 5,000 mg/liter, to an agar prepared from beerwort and peptone. After storage at 28° C. and 60 to 70% relative atmospheric humidity for 2 weeks, the MIC is determined.

[2] = test system: Sclerophoma pityophila; experiment: Agar MIC determination, Sclerophoma pityophila; assay type: cell-based; conditions: Sydowia polyspora, 336 h, beerwort/peptone agar, 28° C., 2 weeks
Protocol: as §1

[3] = test system: Alternaria tenuis; experiment: Agar MIC determination, Alternaria tenuis; assay type: cell-based; conditions: Alternaria alternata, 336 h, beerwort/peptone agar, 28° C., 2 weeks
Protocol: as §1

[4] = test system: Trichoderma viride; experiment: Agar MIC determination, Trichoderma viride; assay type: cell-based; conditions: 336 h, beerwort/peptone agar, 28° C., 2 weeks
Protocol: as §1

[5] = test system: Penicillium glaucum; experiment: Agar MIC determination, Penicillium glaucum; assay type: cell-based; conditions: 336 h, beerwort/peptone agar, 28° C., 2 weeks
Protocol: as §1

[6] = test system: Lentinus tigrinus; experiment: Agar MIC determination, Lentinus tigrinus; assay type: cell-based; conditions: 336 h, beerwort/peptone agar, 28° C., 2 weeks
Protocol: as §1

[7] = test system: Aspergillus niger; experiment: Agar MIC determination, Aspergillus niger; assay type: cell-based; conditions: 336 h, beerwort/peptone agar, 28° C., 2 weeks
Protocol: as §1

[8] = test system: slime organisms; experiment: Action against slime organisms in Allens nutrient solution; assay type: cell-based; conditions: 504 h
Protocol: Compounds according to the invention, dissolved in acetone, are used in concentrations of in each case 0.1 to 100 mg/liter in Allens nutrient solution (Arch. Mikrobiol. 17, 34 to 53 (1952)) containing, in 4 liters of sterile water, 0.2 g of ammonium chloride, 4.0 g of sodium nitrate, 1.0 g of dipotassium hydrogen phosphate, 0.2 g of calcium chloride, 2.05 g of magnesium sulphate, 0.02 g of iron chloride and 1% of caprolactam. Shortly beforehand, the nutrient solution is infected with slime organisms (about 10^6 germs/ml) which have been isolated from the spinning water circulations used in the preparation of polyamide.

[9] = test system: Chaetomium globosum; experiment: Agar MIC determination, Chaetomium globosum; assay type: cell-based; conditions: 336 h, beerwort/peptone agar, 28° C., 2 weeks
Protocol: as §1

[10] = test system: fungi (Aspergillus niger, Aureobasidium pullulans, Alternaria speciales, Penicillium citrinum, Stachybotrys atra, Paecilomyces varioti, Cladosporium herbarum …); experiment: Testing of paint films for resistance to mould (Report 219, Defense Standards Laboratories); conditions: 1.5 to 2% (or more) based on total solids content
Protocol: The test is carried out in accordance with Report 219 of the Defense Standards Laboratories Maibyrnong/Australia, as follows: smooth cardboard is coated on both sides with the product to be tested and is dried at room temperature for 8 days. For ageing, part of the coating is kept in running water at 24° C. for 24 hours, part is aerated with fresh air of 40° to 60° C. for 8 days, and part is exposed to a dry Xenon test for 110 hours. 5×5 cm sections of the test pieces thus treated are placed individually in Petri dishes on a glucose nutrient medium, and are contaminated with a spore suspension of the following fungi: Aspergillus niger, Aureobasidium pullulans, Alternaria speciales, Penicillium citrinum, Stachybotrys atra, Paecilomyces varioti, Cladosporium herbarum, Aspergillus ustus or Aspergillus flavus.
The contaminated dishes are kept at 28°-30° C. and 90-95% relative atmospheric humidity, and are evaluated after 3 weeks. Paint films are regarded as mould-resistant if the test pieces remain free from fungi after this test.
A commercially available, alkaline emulsion paint based on polyvinyl acetate is tested for mould resistance by the test method described above.

[11] = test system: Aureobasidium pullulans; experiment: Agar MIC determination, Aureobasidium pullulans; assay type: cell-based; conditions: 336 h, beerwort/peptone agar, 28° C., 2 weeks
Protocol: as §1

[12] = slime organisms about 10^6 germs/ml, Allens nutrient solution, room temperature, 3 weeks, read-out: MIC

Structure (SMILES): O=c1c2ccccc2nnn1CC#CI [Active compound A, 3-(3-Iodopropargyl)-benzo-1,2,3-triazin-4-one]
- MIC [1]: 0.5 µg/mL (≈ 1.61 µM)
- MIC [2]: 3.5 µg/mL (≈ 11.3 µM)
- MIC [3]: 5 µg/mL (≈ 16.1 µM)
- MIC [4]: 10 µg/mL (≈ 32.1 µM)
- MIC [5]: 5 µg/mL (≈ 16.1 µM)
- MIC [6]: 2 µg/mL (≈ 6.43 µM)
- MIC [7]: 5 µg/mL (≈ 16.1 µM)
- MIC ([8]; read-out: MIC in mg/liter): 5 mg/L (≈ 16.1 µM)
- MIC [9]: < 20 µg/mL
- mould resistance of paint films ([10]; alkaline polyvinyl acetate emulsion paint, 3 weeks, 28°-30° C.): very good mould-resistant paint films
- mould resistance of paint films after ageing ([10]; films first subjected to running water 24 hours, fresh air 40° to 60° C. 8 days, or dry Xenon test 110 hours): very good mould-resistant paint films
- MIC [11]: 5 µg/mL (≈ 16.1 µM)

Structure (SMILES): O=c1c2cc([N+](=O)[O-])ccc2nnn1CC#CI [Active compound B, 3-(3-Iodopropargyl)-6-nitro-benzo-1,2,3-triazin-4-one]
- MIC [5]: < 20 µg/mL
- MIC [7]: < 20 µg/mL
- MIC [8, 12]: 20 mg/L (≈ 56.2 µM)
- MIC [9]: < 20 µg/mL

Structure (SMILES): O=c1c2ccc(Cl)cc2nnn1CC#CI [Active compound C, 3-(3-Iodopropargyl)-7-chloro-benzo-1,2,3-triazin-4-one]
- MIC [5]: < 20 µg/mL
- MIC [7]: < 20 µg/mL
- MIC [8, 12]: 30 mg/L (≈ 86.8 µM)
- MIC [9]: < 20 µg/mL

Structure (SMILES): CCCCNC(=O)OCC#CI [Active compound D, iodopropargyl N-butyl-carbamate, reference compound]
- MIC [4]: 140 µg/mL (≈ 498 µM)
- MIC [5]: 40 µg/mL (≈ 142 µM)
- MIC [7]: 80 µg/mL (≈ 285 µM)
- MIC [9]: 60 µg/mL (≈ 213 µM)

— patent US4520023A, “3-(3-Iodopropargyl)-benzo-1,2,3-triazin-4-ones, and their use in microbicidal agents” (Bayer Aktiengesellschaft, priority 1982, dated 1985)
